In patent publication US6004938A, “Inositolglycans having insulin-like action” (Hoescht Aktiengesellschaft, priority 1996, dated 1999):

Tests used:
rat fat cells [1] = experiment: Lipogenesis in isolated rat fat cells (insulin-like activity); type: cell-based, rat (Wistar); settings: rat fat cells, 90 min, 37° C.; for EC50: concentration at 50% of the maximum stimulation achieved by the respective compound, read-out: Lipogenesis EC50; for Emax / Lipogenesis % Insmax: part of maximum stimulation factor of insulin (set at 100%), D-[3-3H]glucose; for Emax: read-out: Lipogenesis % Insmax
Protocol: (§1) This example provides exemplary methods for determining insulin-like activity. The biological activity of the compounds of the formula I according to the invention is determined with the aid of isolated fat cells from the rat.
(§2) The preparation of fat cells from the rat was carried out as follows: White fatty tissue of the epididymis (Wistar rat, 160-180 g, no food restriction) is digested with collagenase and the resulting isolated fat cells are separated off by means of filtration of undigested tissue and washed by flotation several times using Krebs-Ringer-Henseleit buffer (KRH buffer).
This test determines the insulin-stimulable conversion of glucose into toluene-soluble products (triglycerides, phospholipids, fatty acids), which promotes glucose transport and triglyceride (glycerol-3-P synthesis, esterification)/phospholipid/fatty acid synthesis including the insulin signal transmission cascade. At a glucose concentration of 2.5 mM in the test, the esterification (and not the glycerol-3-P synthesis including glucose transport) is rate-determining for the stimulation of lipogenesis.
200 μl (3×10^5 cells/ml) of rat fat cells in KRH buffer are incubated at 37° C. for 90 min with 100 μl of D-[3-^3 H] glucose (25 mM, 0.4 μCi) in the presence or absence of insulin (10 ng/ml) or compound of the formula I according to the invention (final volume 1 ml). By addition of a toluene-soluble scintillation cocktail (10 ml), the cells are disrupted and the lipids are separated off from water-soluble products and the incubation medium. After phase separation, the radioactivity incorporated in lipid products is determined directly without removal of the aqueous phase by scintillation measurement ([^3 H]lipid [dpm×10^-3 ]). A control value (incubation under identical conditions but without cells) is subtracted from this radioactivity. The lipogenesis rate is linear up to 120 min. The maximum stimulation factor--this is the ratio of the incubation result with insulin to the incubation results without insulin--is set at 100%. The percentage data under "%Insmax " are parts of the maximum stimulation factor defined in this way. The term EC50 indicates the concentration of the compound of the formula I at which 50% of the maximum stimulation to be achieved by the respective compound of the formula I is to be observed.

rat fat cells [2] = experiment: Glucose transport in isolated rat fat cells (insulin-like activity); type: cell-based, rat (Wistar); settings: rat fat cells, 2-[3H]-deoxyglucose; for Emax: 0.25 h, read-out: Glucose transport % Insmax; for Emax / Glucose transport % Insmax: part of maximum stimulation factor of insulin (set at 100%), 15 min, 37° C.; for EC50: concentration at 50% of the maximum stimulation achieved by the respective compound, read-out: Glucose transport EC50
Protocol: as §1, §2
[…] After addition of 15 μl of 2-[^3 H]-deoxyglucose (0.3 mM, 0.2 μCi), the incubation is continued at room temperature. After specified times (0-20 min), 100 μl of the test batch are removed and transferred to a reaction vessel (contents 400 μl), in which 250 μl of dinonyl phthalate have been initially introduced. After centrifugation (15,000×g, 1 min), the cells are separated off from the oily layer of the incubation medium underneath the oily layer by cutting the tube at the level of the oily layer and transferring to a scintillation vessel. After addition of 5 ml of water-soluble scintillation fluid, the radioactivity is determined. This total cell-associated radioactivity is corrected for [^3 H]-deoxyglucose which has passively diffused into the cells and is included in the cell interstices by subtraction of a control value (incubation in the presence of the glucose transport inhibitor cytochalasin B). The initial (stimulated) glucose transport rate is linear up to 15 min. The maximum stimulation factor--this is the ratio of the incubation result with insulin to the incubation result without insulin--is set at 100%.
The terms "%Insmax " and "EC50 " are as defined under A) lipogenesis.

Row | Compound | EC50 (rat fat cells [1]; 1.5 h) | EC50 (rat fat cells [2]) | EC50 (rat fat cells [1]) | Emax (rat fat cells [1]; 1.5 h) | Emax (rat fat cells [2]) | Lipogenesis % Insmax (rat fat cells [1]) | Glucose transport % Insmax (rat fat cells [2])
1 | H2 N-CO-6Manα1(Manα1-2)-2Manα1-6Manα1-4GluNβ1-6(D)-inositol-1,2-(cyclic)-phosphate [K] | – | 15 µM | 8 µM | – | – | 72% | 23%
2 | HO-PO(H)O-6-Manα1(Manα1-2)-2-Manα1-6Manα-3GluNβ1-6(L)-inositol-3-phosphate | – | 20 µM | 20 µM | – | – | 32% | 18%
3 | HO-PO(H)O-6Manα1(Manα1-2)-2Manα1-6Manα1-4GluNα1-6(L)inositol-2-phosphate [F] | – | 25 µM | 15 µM | – | – | 53% | 26%
4 | HO-PO(H)O-6Manα1-6-Manα1-6Manα1-6Manα1-3GluNβ1-6(L)inositol-3-phosphate | – | 50 µM | 20 µM | – | – | 18% | 14%
5 | HO-SO2 -6Manα1(Manα1-2)-2Manα1-6Manα1-4GluNβ1-6(D)-inositol-1,2-(cyclic)-phosphate | – | 8 µM | 7 µM | – | – | 84% | 36%

Continued, in another order:

Row | EC50 (rat fat cells [1]; 1.5 h) | EC50 (rat fat cells [2]) | EC50 (rat fat cells [1]) | Compound | Emax (rat fat cells [1]; 1.5 h) | Emax (rat fat cells [2]) | Lipogenesis % Insmax (rat fat cells [1]) | Glucose transport % Insmax (rat fat cells [2])
6 | 12 µM | 10 µM | – | N[C@H]1[C@H](O[C@H]2[C@H](O)[C@@H](O)[C@H](OP(=O)(O)O)[C@H](O)[C@@H]2O)O[C@H](CO)[C@@H](O)[C@@H]1O[C@H]1O[C@H](CO[C@H]2O[C@H](CO[PH](=O)O)[C@@H](O)[C@H](O)[C@@H]2O[C@H]2O[C@H](CO[PH](=O)O)[C@@H](O)[C@H](O)[C@@H]2O[C@H]2O[C@H](CO)[C@@H](O)[C@H](O)[C@@H]2O)[C@@H](O)[C@H](O)[C@@H]1O [T, HO-PO(H)O-6Manα1(Manα1-2)-2Manα1(6-PO(H)OH)-6Manα1-3GluNβ1-6(L)inositol-3-phosphate] | 72% | 30% | – | –
7 | 15 µM | 15 µM | – | N[C@H]1[C@H](O[C@H]2[C@H](O)[C@@H](O)[C@H](OP(=O)(O)O)[C@H](O)[C@@H]2O)O[C@H](CO)[C@@H](O)[C@@H]1O[C@H]1O[C@H](CO[C@H]2O[C@H](CO[PH](=O)O)[C@@H](O)[C@H](O)[C@@H]2O[C@H]2O[C@H](CO)[C@@H](O)[C@H](O)[C@@H]2O[C@H]2O[C@H](CO)[C@@H](O)[C@H](O)[C@@H]2O)[C@@H](O)[C@H](O)[C@@H]1O [U, Manα1-2Manα1-2Manα1(6-PO(H)OH)-6Manα1-3GluNβ1-6(L)inositol-3-phosphate] | 80% | 34% | – | –
8 | 15 µM | 15 µM | – | N[C@H]1[C@H](O[C@H]2[C@H](O)[C@@H](O)[C@H](OP(=O)(O)O)[C@H](O)[C@@H]2O)O[C@H](CO)[C@@H](O)[C@@H]1O[C@H]1O[C@H](CO[C@H]2O[C@H](COS(=O)(=O)O)[C@@H](O)[C@H](O)[C@@H]2O[C@H]2O[C@H](CO)[C@@H](O)[C@H](O)[C@@H]2O[C@H]2O[C@H](CO)[C@@H](O)[C@H](O)[C@@H]2O)[C@@H](O)[C@H](O)[C@@H]1O [V, Manα1(Manα1-2)-2Manα1(6-HSO3)-6Manα1-3GluNβ1-6(L)inositol-3-phosphate] | 83% | 48% | – | –
9 | 10 µM | 10 µM | – | N[C@H]1[C@H](O[C@H]2[C@H](O)[C@@H](O)[C@H](OP(=O)(O)O)[C@H](O)[C@@H]2O)O[C@H](CO)[C@@H](O)[C@@H]1O[C@H]1O[C@H](CO[C@H]2O[C@H](COS(=O)(=O)O)[C@@H](O)[C@H](O)[C@@H]2O[C@H]2O[C@H](COS(=O)(=O)O)[C@@H](O)[C@H](O)[C@@H]2O[C@H]2O[C@H](CO)[C@@H](O)[C@H](O)[C@@H]2O)[C@@H](O)[C@H](O)[C@@H]1O [W, HO-SO2 -O-6Manα1(Manα1-2)-2-Manα1(6-HSO3)-6Manα1-3GluNβ1-6(L)inositol-3-phosphate] | 86% | 42% | – | –
10 | – | 3 µM | 8 µM | HO-PO(H)O-6Manα1(Manα1-2)-2-Manα1-6-Manα1-4GluN(HSO3)β-1-6(L)-inositol-1,2-(cyclic)-phosphate [J] | – | – | 63% | 21%
